Reference: patent publication US10537580B2, “Azocane and azonane derivatives and methods of treating hepatitis B infections” (Novira Therapeutics, Inc., priority 2015, dated 2020)

Key:
[1] = test system: HBV replication in HepG2-2.2.15 cells; assay: Inhibition of HBV replication dot-blot assay; format: cell-based; conditions: at 10 μM, six days, reduction in HBV DNA levels
Procedure: Compounds active in the HBV assembly assay are tested for their activity and toxicity in cellular assay. In the first anti-viral assay, the ability of compounds to inhibit HBV replication in an HBV-producing hepatoma cell line using the dot-blot method is evaluated.
Briefly, confluent monolayers of HepG2-2.2.15 cells are incubated with complete medium containing various concentrations of a test compound. Three days later, the culture medium is replaced with fresh medium containing the appropriately diluted test compound. Six days following the initial administration of the test compound, the cell culture supernatant is collected, and cell lysis is performed. The samples are applied onto Nylos membranes and DNA is immobilized to the membrane by UV cross-linking. After pre-hybridization, the HBV probe is added and the hybridization is performed overnight. The membranes are exposed to the Kodak films; antiviral activity is calculated from the reduction in HBV DNA levels (EC50). The EC50 for antiviral activity is calculated from the dose response curves of active compounds. Assay performance over time is monitored by the use of the standard positive control compounds ETV, BAY 41-4109, and HAP-1.
Selected compounds were tested for their activity and toxicity in cellular assay. In the first anti-viral assay, the ability of compounds to inhibit HBV replication in an HBV-producing hepatoma cell line using the dot-blot method was evaluated.
Confluent monolayers of HepG2-2.2.15 cells were incubated with complete medium containing various concentrations of a test compound. Three days later, the culture medium was replaced with fresh medium containing the appropriately diluted test compound. Six days following the initial administration of the test compound, the cell culture supernatant was collected, and cell lysis was performed. The samples were applied onto Nylos membranes and DNA was immobilized to the membrane by UV cross-linking. After pre-hybridization, the HBV probe was added and the hybridization was performed overnight. The membranes were exposed to the Kodak films; antiviral activity was calculated from the reduction in HBV DNA levels (EC50). The EC50 for antiviral activity was calculated from the dose response curves of active compounds. Assay performance over time was monitored by the use of the standard positive control compounds ETV, BAY 41-4109, and HAP-1.

[2] = target: mutant C150 HBV capsid protein (C150Bo) (Hepatitis B virus genotype D subtype adw, UniProt P03147, C107A/C48A/C61A/R150C); assay: HBV assembly assay (fluorescence quenching in vitro capsid assembly); format: biochemical; conditions: at about 10 μM; 50 mM Hepes pH 7.5, 150 mM NaCl, 1 hour at room temperature
Chain of mutant C150 HBV capsid protein (C150Bo) (P03147 whole entry C107A/C48A/C61A/R150C, looked up): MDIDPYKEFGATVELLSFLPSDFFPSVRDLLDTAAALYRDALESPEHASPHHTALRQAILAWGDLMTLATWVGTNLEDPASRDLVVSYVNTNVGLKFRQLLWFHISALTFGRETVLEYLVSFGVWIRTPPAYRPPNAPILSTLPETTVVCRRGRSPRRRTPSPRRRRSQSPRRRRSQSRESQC

Row | SMILES | Activity in dot-blot-assay [1] | Activity (HBV assembly assay) [2]
1 | O=C(Nc1ccc(F)c(Cl)c1)c1ccc(F)c(S(=O)(=O)N2CCCCC(O)C(F)C2)c1 (stereo not shown) [Compound 2285_D2] | + (‘+’ indicates >50% activity at 10 μM) | + (‘+’ indicates >50% activity at about 10 μM)
2 | O=C(Nc1ccc(F)c(Cl)c1)c1ccc(F)c(S(=O)(=O)N2CCCCC(O)C(F)C2)c1 (stereo not shown) [Compound 2285_D1] | + (‘+’ indicates >50% activity at 10 μM) | + (‘+’ indicates >50% activity at about 10 μM)
3 | O=C(Nc1cc(F)c(F)c(F)c1)c1ccc(F)c(S(=O)(=O)N2CCCCCCCC2)c1 [Compound 2435] | + (‘+’ indicates >50% activity at 10 μM) | + (‘+’ indicates >50% activity at about 10 μM)
4 | O=C(Nc1cc(F)c(F)c(F)c1)c1ccc(F)c(S(=O)(=O)N2CCOCC(O)CC2)c1 (stereo not shown) [Compound 2520] | + (‘+’ indicates >50% activity at 10 μM) | + (‘+’ indicates >50% activity at about 10 μM)
5 | O=C(Nc1ccc(F)c(Cl)c1)c1ccc(F)c(S(=O)(=O)N2CCOCCC(O)C2)c1 (stereo not shown) [Compound 2039] | + (‘+’ indicates >50% activity at 10 μM) | + (‘+’ indicates >50% activity at about 10 μM)
6 | O=C(Nc1ccc(F)c(Cl)c1)c1ccc(F)c(S(=O)(=O)N2CCOCC(O)CC2)c1 (stereo not shown) [Compound 2040_E1] | + (‘+’ indicates >50% activity at 10 μM) | + (‘+’ indicates >50% activity at about 10 μM)
7 | O=C(Nc1ccc(F)c(Cl)c1)c1ccc(F)c(S(=O)(=O)N2CCOCC(O)CC2)c1 (stereo not shown) [Compound 2040_E2] | + (‘+’ indicates >50% activity at 10 μM) | + (‘+’ indicates >50% activity at about 10 μM)
8 | O=C(Nc1ccc(F)c(Cl)c1)c1ccc(F)c(S(=O)(=O)N2CCCCCCCC2)c1 [Compound 2436] | + (‘+’ indicates >50% activity at 10 μM) | + (‘+’ indicates >50% activity at about 10 μM)
